In patent US12162858B2, “Quinoline derivatives as inhibitors of AXL/MER RTK and CSF1R” (QURIENT CO., LTD., priority 2018, dated 2024):

What was measured:
Axl [1] = target: T1, Axl (Homo sapiens, UniProt P30530); assay: Cellular Axl inhibition ELISA (p-Axl, Gas6-induced) using H1299 cells; format: cell-based; set-up: especially H1299 cell endogenously expresses Axl; endogenous in cells; host or cells: H1299; conditions: read-out: Cellular Axl activity by H1299 Elisa (IC50)
T1 sequence (P30530 26-894): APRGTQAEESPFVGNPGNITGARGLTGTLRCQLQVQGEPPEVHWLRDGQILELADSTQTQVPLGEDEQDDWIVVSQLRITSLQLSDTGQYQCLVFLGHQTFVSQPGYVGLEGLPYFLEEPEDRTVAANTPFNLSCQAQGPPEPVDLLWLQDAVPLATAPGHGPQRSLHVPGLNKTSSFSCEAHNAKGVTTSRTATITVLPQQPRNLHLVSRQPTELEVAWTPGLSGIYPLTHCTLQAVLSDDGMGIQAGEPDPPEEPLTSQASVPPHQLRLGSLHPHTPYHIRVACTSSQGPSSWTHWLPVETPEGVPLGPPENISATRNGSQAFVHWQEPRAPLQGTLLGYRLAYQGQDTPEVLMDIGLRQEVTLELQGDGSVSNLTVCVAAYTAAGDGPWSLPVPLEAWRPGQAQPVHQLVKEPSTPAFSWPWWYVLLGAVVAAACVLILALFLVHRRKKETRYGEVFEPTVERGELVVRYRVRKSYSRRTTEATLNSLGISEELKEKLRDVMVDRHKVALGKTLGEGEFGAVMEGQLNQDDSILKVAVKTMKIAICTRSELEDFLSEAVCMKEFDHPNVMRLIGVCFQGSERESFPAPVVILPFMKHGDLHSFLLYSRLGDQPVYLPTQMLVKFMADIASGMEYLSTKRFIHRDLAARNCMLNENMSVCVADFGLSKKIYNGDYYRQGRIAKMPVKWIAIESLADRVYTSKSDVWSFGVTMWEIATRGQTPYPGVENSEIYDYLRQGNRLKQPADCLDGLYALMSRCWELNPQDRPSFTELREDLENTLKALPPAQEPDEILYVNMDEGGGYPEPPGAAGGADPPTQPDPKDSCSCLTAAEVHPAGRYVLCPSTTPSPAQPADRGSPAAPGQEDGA
Description: Axl is expressed in several of malignant cancer cells; especially H1299 cell endogenously expresses Axl; and an increased phosphorylation of Axl (p-Axl) can be observed, when induced by the Axl ligand, Ga6.
The H1299 cells should be 40-80% confluent in the cell culture flask. Then cells are washed with DPBS and trypsinized. After centrifugation, the cell pellet is re-suspended with pre-warmed culture medium (RPMI1640, 10% FBS) and cells are separated by pipetting 6 times up and down with a 10 ml serological pipette. The cell suspension was diluted to a final concentration of 1.25×10^5 cells/ml. Then 80 μl/well cell suspension is added to the plate. Cell-plates are incubated at 37° C./5% CO2 overnight. Compounds were dissolved by DMSO to 10 mM, and kept in nitrogen cabinet. Prepare the compounds stock plate, the reference compounds concentration starts at 0.50 mM (5 μl+95 μl DMSO), and the tested compounds start at 1.5 mM (6 μl+34 μl DMSO); Then make a 3-fold dilution series (10 doses) compounds. Then dilute compounds by the medium in the mid plate (2 μl compounds+198 μl medium). Transfer 20 μl diluted compounds from mid plate to the cell coated plate. Cell-plates are incubated at 37° C./5% CO2 for 24 h. Add 25 μl of Human Gas6 (1000 ng/ml) to 96-well plate; the final concentration of Human Gas6 is 200 ng/ml. Incubate the plates at 37° C./5% CO2 for 1 h. Remove medium and wash cells once with 300 ul/well ice-cold 1×PBS. Then remove PBS and add 100 μl/well ice-cold 1× Cell Lysis Buffer to 96-well plate. The plate is shaken for 40 min at 4° C. Then plates can be stored at −20° C. After the micro-wells strips have reached room temperature, break off the required number of micro-wells. Place the micro-wells in the strip holder. Unused micro-wells must be resealed and stored at 4° C. immediately. Add 60 μl of cell lysate to the appropriate well. Seal with tape and press firmly onto top of micro-wells. Incubate the plate at 37° C. for 2 h. Gently remove the tape and wash wells 5 times with 1× Wash Buffer, 300 μl each time for each well. Add 100 μl of reconstituted Detection Antibody (green color) to each well. Seal with tape and incubate the plate at 37° C. for 1 h. Repeat wash procedure. Add 100 μl of reconstituted HRP Linked secondary antibody to each well. Seal with tape and incubate the plate at 37° C. for 30 min. Repeat wash procedure. Add 100 μl of TMB Substrate to each well. Seal with tape and incubate the plate at 37° C. for 15 min. Add 100 μl of STOP Solution to each well. Shake gently for a few seconds. Read absorbance at 450 nm within 30 min after adding STOP Solution. Calculations and Formulas: The following calculations and formulas are used for data analysis using XL Fit software: The curve fitting was made using the Sigmoidal Dose-Response Model (Fit model, 205).

Axl [2] = target: T1, Axl; assay: LanthaScreen Eu kinase binding assay for Axl; conditions: read-out: Axl kinase binding activity (Kd)
Description: LanthaScreen® Eu Kinase Binding assays were conducted at Life Technologies using the manufacturer's specifications for each kinase indicated.
Briefly, the principle behind this assay is based upon the binding and displacement of an Alexa Fluor 647-labeled tracer to the kinase of interest. Binding of the tracer to the kinase is detected using an EU-labeled anti-tag antibody. Simultaneous binding of both the tracer and antibody to the kinase gives rise to a FRET-signal. Binding of an inhibitor to the kinase competes for binding with the tracer, resulting in a loss of FRET-signal.
A given compound was diluted in DMSO to make a stock compound solution. The stock compound solution was serially diluted over eight steps in DMSO. Each diluted compound solution in DMSO was diluted in kinase buffer. Afterwards four kinds of working solution were prepared. First, Tracer-Working solution consists of Tracer 236 and Kinase Buffer. Second, Axl, Mer, Tyro3 or Met/anti-GST-AB-Working solution contained one of the kinases Axl, and Mer or anti-GST-AB (=anti glutathione-S-transferase antibody) in Kinase Buffer. Third, anti-GST-AB-Working solution was made with anti-GST-AB and Kinase Buffer. Last, in the DMSO-Working solution DMSO was added to Kinase Buffer to a final concentration to 3%. Each of the four kinds of working solutions were separately added to the assay plate and then incubated for 1 h at room temperature. After incubation, the assay plate was measured with respect to the FRET-Signal with the EnVision (Perkin Elmer) using the program LanthaHTRF-Assay. Data evaluation was done in the Quattro Workflow software. Kd (the equilibrium dissociation constant) values were calculated relative to vehicle (DMSO) control wells.

IC50 (Axl [1]) [nM]	Kd (Axl [2]) [nM]	SMILES
500 to 1000	< 100	COc1cc2nccc(Oc3ccc(NC(=O)c4nn(CC(C)O)cc4OCCF)nc3)c2cc1OC (stereo not shown) [Compound 152]
< 500	< 100	CNCCn1cc(OCC(F)(F)F)c(C(=O)Nc2ccc(Oc3ccnc4cc(OC)c(OC)cc34)c(F)c2)n1 [Compound 155]
< 500	< 100	CCCn1cc(NCCC(F)(F)F)c(C(=O)Nc2ccc(Oc3ccnc4cc(OC)c(OC)cc34)cn2)n1 [Compound 158]
≥ 1000	≥ 500	CNCCOc1cn(C2CC2)nc1C(=O)Nc1ccc(Oc2ccnc3cc(OC)c(OC)cc23)nn1 [Compound 160]

The remaining lines, values behind:

SMILES	IC50 (Axl [1]) [nM]	Kd (Axl [2]) [nM]
COc1cc2nccc(Oc3ccc(NC(=O)c4nn(CCOC5CC5)cc4OCC(F)(F)F)nc3)c2cc1OC [Compound 153]	< 500	< 100
CNCCn1cc(OCC(F)(F)F)c(C(=O)Nc2ccc(Oc3ccnc4cc(OC)c(OC)cc34)cc2F)n1 [Compound 154]	500 to 1000	< 100
CNCCn1cc(OCC(F)(F)F)c(C(=O)Nc2ccc(Oc3ccnc4cc(OC)c(OC)cc34)c(C)c2)n1 [Compound 156]	≥ 1000	100 to 500
COc1cc2nccc(Oc3ccc(NC(=O)c4nn(C5CCN(C)C5)cc4OCC(F)(F)F)nn3)c2cc1OC (stereo not shown) [Compound 157]	≥ 1000	100 to 500
CCCn1cc(OCC2CNC2)c(C(=O)Nc2ccc(Oc3ccnc4cc(OC)c(OC)cc34)cn2)n1 [Compound 159]	≥ 1000	≥ 500
COc1cc2nccc(Oc3ccc(NC(=O)c4nn(C5CC5)cc4OCC4COC4)nn3)c2cc1OC [Compound 161]	< 500	< 100
COc1cc2nccc(Oc3ccc(NC(=O)c4nn(C5CC5)cc4OCC(F)F)nn3)c2cc1OC [Compound 162]	< 500	< 100
COc1cc2nccc(Oc3ccc(NC(=O)c4nn(CC(C)O)cc4OCC4CCC4)nc3)c2cc1OC (stereo not shown) [Compound 163]	< 500	< 100
CCCn1cc(OCC2CCOCC2)c(C(=O)Nc2ccc(Oc3ccnc4cc(OC)c(OC)cc34)cn2)n1 [Compound 164]	< 500	< 100
CCCn1cc(OCCN(C)C)c(C(=O)Nc2ccc(Oc3ccnc4cc(OC)c(OC)cc34)c(F)c2)n1 [Compound 165]	< 500	100 to 500
